Experimental data taken from patent USRE48461E1, “Modulation of androgen receptor expression” (Ionis Pharmaceuticals, Inc., priority 2012, dated 2021).
Oligonucleotides are written 5' to 3', each unit as a sugar letter and its base; * is a phosphorothioate linkage, no mark a phosphodiester; rarer units and linkages stand in square brackets, end groups in braces. Plain capitals give the bases only. e = 2'-O-(2-methoxyethyl) (MOE); k = constrained ethyl (cEt); [5mC] = 5-methylcytosine; d = 2'-deoxy (DNA)

Key:
[1] = cynomolgus monkey, in vivo, sc, 40 mg/kg
[2] = cynomolgus monkey, in vivo, sc, 40 mg/kg; remark: listed apart in the source
Procedure: The monkeys were 2-4 years old and weighed between 2 and 4 kg. Thirteen groups of four randomly assigned male cynomolgus monkeys each were injected subcutaneously with ISIS oligonucleotide or PBS. PBS solution or ISIS oligonucleotides, at a dose of 40 mg/kg, were administered with a loading regimen consisting of four doses on the first week of the study (days 1, 3, 5, and 7), followed by a maintenance regimen consisting of once weekly administration starting on Day 14 (weeks 2 to 6). Subcutaneous injections were performed in clock-wise rotations at 4 sites on the back; one site per dose. The injection sites were delineated by tattoo, while sedated using ketamine, and were separated by a minimum of 3 cm.
To evaluate any inflammatory effect of ISIS oligonucleotides in cynomolgus monkeys, the monkeys were fasted overnight. Approximately, 1.5 mL of blood samples were collected from all the study groups on day 44. Blood was collected in tubes without anticoagulant for serum separation. The tubes were kept at room temperature for a minimum of 90 min and then centrifuged at 3,000 rpm for 10 min. C-reactive protein (CRP), which is synthesized in the liver and which serves as a marker of inflammation, was measured on day 43 using a Toshiba 120FR NEO chemistry analyzer (Toshiba Co., Japan). Complement C3 was also measured similarly, and the data is presented as a percentage of baseline values.

[3] = cynomolgus monkey, in vivo, sc, 40 mg/kg; remark: listed apart in the source
[4] = cynomolgus monkey, in vivo, sc, 40 mg/kg; remark: listed apart in the source
[5] = cynomolgus monkey, in vivo, sc, 40 mg/kg; remark: listed apart in the source
Procedure: Prior to the study, the monkeys were kept in quarantine for a 30-day period, during which the animals were observed daily for general health. The monkeys were 2-4 years old and weighed between 2 and 4 kg. Thirteen groups of four randomly assigned male cynomolgus monkeys each were injected subcutaneously with ISIS oligonucleotide or PBS. PBS solution or ISIS oligonucleotides, at a dose of 40 mg/kg, were administered with a loading regimen consisting of four doses on the first week of the study (days 1, 3, 5, and 7), followed by a maintenance regimen consisting of once weekly administration starting on Day 14 (weeks 2 to 6). Subcutaneous injections were performed in clock-wise rotations at 4 sites on the back; one site per dose. The injection sites were delineated by tattoo, while sedated using ketamine, and were separated by a minimum of 3 cm.
To evaluate the effect of ISIS oligonucleotides on kidney function, the monkeys were fasted overnight. Approximately, 1.5 mL of blood samples were collected from all the study groups on day 44. Blood was collected in tubes without anticoagulant for serum separation. The tubes were kept at room temperature for a minimum of 90 min and then centrifuged at 3,000 rpm for 10 min. Levels of BUN and creatinine were measured using a Toshiba 120FR NEO chemistry analyzer (Toshiba Co., Japan).

AR mRNA [6] = experiment: AR mRNA in LnCaP cells by free uptake (hAR_LTS00943); assay type: cell-based, human; settings: 24 hrs
Procedure: Cells were plated at a concentration of 4,000 cells/well in 96-well plates. ISIS oligonucleotides, specified in Table 68, were added individually at 0.02 μM, 0.10 μM, 0.50 μM, 2.50 μM, or 10.00 μM. After an incubation period of 24 hrs, mRNA levels were measured using primer probe set hAR_LTS00943.

AR mRNA [7] = experiment: Antisense inhibition of human AR in HuVEC cells, single concentration (electroporation, qRT-PCR RTS3559); assay type: cell-based; settings: 250 nM ASO, ~24 h, Table 7
Method in brief: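 AR mRNA levels were measured with human primer-probe set RTS3559 and adjusted for total RNA (RIBOGREEN). Cells were HuVEC, with each antisense oligonucleotide delivered by electroporation at one concentration.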

TMPRSS2 mRNA = TMPRSS2 mRNA levels in LMR20 cells; assay type: cell-based, human; settings: LMR20 cells; for TMPRSS2 mRNA levels (% baseline value) after treatment with DHT: DHT 10 nM 72 hrs; for TMPRSS2 mRNA levels (% baseline value) after treatment with R1881: R1881 10 nM 72 hrs; for TMPRSS2 mRNA levels (% baseline value) of cells without AR agonist treatment: no AR agonist
Procedure: (§1) LMR20 cells were plated at 1,500 cells per well in phenol red-free medium with CSS.

AR mRNA [8] = experiment: AR mRNA levels in LMR20 cells (with/without DHT or R1881); assay type: cell-based, human; settings: LMR20 cells; for AR mRNA levels (% baseline value) after treatment with DHT: DHT 10 nM 72 hrs; for AR mRNA levels (% baseline value) after treatment with R1881: R1881 10 nM 72 hrs; for AR mRNA levels (% baseline value) of cells without AR agonist treatment: no AR agonist
Procedure: as §1

AR mRNA [9] = experiment: AR mRNA in liver, heart, skeletal muscle, kidney, prostate of cynomolgus monkeys; assay type: in vivo; settings: cynomolgus monkey, 40 mg/kg subcutaneously
Procedure: Cynomolgus monkeys were treated with ISIS antisense oligonucleotides selected from studies described above. Antisense oligonucleotide efficacy and tolerability were evaluated. The human antisense oligonucleotides tested are cross-reactive with the rhesus genomic sequence (GENBANK Accession No. NW_001218131.1 truncated from nucleotides 134001 to 308000 and designated herein as SEQ ID NO: 189). The target start site and target region of each oligonucleotide to SEQ ID NO: 189, as well as the details of their chemistry and sequence, is presented in Table 133.
RNA was extracted from liver, heart, skeletal muscle, kidney, and prostate tissues for real-time PCR analysis of AR using primer probe set RTS3559. The results were normalized to RIBOGREEN®. Results are presented as percent inhibition of AR mRNA, relative to PBS control.

AR mRNA [10] = experiment: Dose-dependent antisense inhibition of human AR in HuVEC cells (electroporation, qRT-PCR RTS3559, IC50); assay type: cell-based; settings: HuVEC, ~16 h, Table 8
Method in brief: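 HuVEC cells dosed with antisense oligonucleotides by electroporation and treated approximately 16 hours. AR mRNA quantified by real-time qPCR with primer probe set RTS3559 and normalised to total RNA by RIBOGREEN; IC50 from dose-response.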

[11] = system: prostate-specific antigen (PSA) mRNA; experiment: PSA mRNA levels in LMR20 cells; assay type: cell-based, human; settings: LMR20 cells; for PSA mRNA levels (% baseline value) after treatment with DHT: DHT 10 nM 72 hrs; for PSA mRNA levels (% baseline value) after treatment with R1881: R1881 10 nM 72 hrs; for PSA mRNA levels (% baseline value) of cells without AR agonist treatment: no AR agonist
Procedure: LMR20 cells were plated at 1,500 cells per well in phenol red-free medium with CSS. […] Results are presented in Tables 43-45 as mRNA levels expressed as a percentage of the baseline values. mRNA levels may be lowered or increased after treatment.

TGATTTAATGGTTGCA [ISIS 569213] (cEt/MOE gapmer chemistry, further chemistry not given here)
ALT [1]: 47 IU/L
AST [1]: 80 IU/L
Albumin [1]: 3.7 g/dL
C3 (% of baseline) [2]: 60 % of baseline
CRP [2]: 2.8 mg/dL
Body Wt [3]: 2.4 kg
Heart weight [3]: 8.3 g
Kidney weight [3]: 16 g
Liver weight [3]: 69 g
Mesenteric lymph nodes weight [3]: 2.4 g
Spleen weight [3]: 5.3 g
HCT [4]: 42%
Hemoglobin [4]: 12.5 g/dL
Platelets [4]: 426000 µL
RBC [4]: 5.6e+06 µL
WBC [4]: 12900 µL
Plasma BUN [5]: 29.4 mg/dL
Plasma Creatinine [5]: 0.91 mg/dL

560131 (antisense kT*kT*kG*dA*dT*dT*dT*dA*dA*dT*dG*dG*kT*kT*kG*e[5mC]) [compound 560131]
Percent inhibition of AR mRNA (AR mRNA [6]; 0.02 μM): 0%
Percent inhibition of AR mRNA (AR mRNA [6]; 0.1 μM): 0%
Percent inhibition of AR mRNA (AR mRNA [6]; 0.5 μM): 13%
Percent inhibition of AR mRNA (AR mRNA [6]; 10 μM): 57%
% inhibition (AR mRNA [7]): 74%
TMPRSS2 mRNA levels (% baseline value) after treatment with DHT (TMPRSS2 mRNA; ASO 0.04 μM): 112 % baseline value
TMPRSS2 mRNA levels (% baseline value) after treatment with DHT (TMPRSS2 mRNA; ASO 0.20 μM): 108 % baseline value
TMPRSS2 mRNA levels (% baseline value) after treatment with DHT (TMPRSS2 mRNA; ASO 1.0 μM): 93 % baseline value
TMPRSS2 mRNA levels (% baseline value) after treatment with DHT (TMPRSS2 mRNA; ASO 5.0 μM): 71 % baseline value
TMPRSS2 mRNA levels (% baseline value) after treatment with R1881 (TMPRSS2 mRNA; ASO 0.04 μM): 132 % baseline value
TMPRSS2 mRNA levels (% baseline value) after treatment with R1881 (TMPRSS2 mRNA; ASO 0.20 μM): 117 % baseline value
TMPRSS2 mRNA levels (% baseline value) after treatment with R1881 (TMPRSS2 mRNA; ASO 1.0 μM): 88 % baseline value
TMPRSS2 mRNA levels (% baseline value) after treatment with R1881 (TMPRSS2 mRNA; ASO 5.0 μM): 76 % baseline value
TMPRSS2 mRNA levels (% baseline value) of cells without AR agonist treatment (TMPRSS2 mRNA; ASO 0.04 μM): 92 % baseline value
TMPRSS2 mRNA levels (% baseline value) of cells without AR agonist treatment (TMPRSS2 mRNA; ASO 0.20 μM): 67 % baseline value
TMPRSS2 mRNA levels (% baseline value) of cells without AR agonist treatment (TMPRSS2 mRNA; ASO 1.0 μM): 52 % baseline value
TMPRSS2 mRNA levels (% baseline value) of cells without AR agonist treatment (TMPRSS2 mRNA; ASO 5.0 μM): 45 % baseline value
AR mRNA levels (% baseline value) after treatment with DHT (AR mRNA [8]; ASO 0.04 μM): 89 % baseline value
AR mRNA levels (% baseline value) after treatment with DHT (AR mRNA [8]; ASO 0.20 μM): 55 % baseline value
AR mRNA levels (% baseline value) after treatment with DHT (AR mRNA [8]; ASO 1.0 μM): 25 % baseline value
AR mRNA levels (% baseline value) after treatment with DHT (AR mRNA [8]; ASO 5.0 μM): 20 % baseline value
AR mRNA levels (% baseline value) after treatment with R1881 (AR mRNA [8]; ASO 0.04 μM): 87 % baseline value
AR mRNA levels (% baseline value) after treatment with R1881 (AR mRNA [8]; ASO 0.20 μM): 65 % baseline value
AR mRNA levels (% baseline value) after treatment with R1881 (AR mRNA [8]; ASO 1.0 μM): 30 % baseline value
AR mRNA levels (% baseline value) after treatment with R1881 (AR mRNA [8]; ASO 5.0 μM): 26 % baseline value
AR mRNA levels (% baseline value) of cells without AR agonist treatment (AR mRNA [8]; ASO 0.04 μM): 107 % baseline value
AR mRNA levels (% baseline value) of cells without AR agonist treatment (AR mRNA [8]; ASO 0.20 μM): 74 % baseline value
AR mRNA levels (% baseline value) of cells without AR agonist treatment (AR mRNA [8]; ASO 1.0 μM): 29 % baseline value
AR mRNA levels (% baseline value) of cells without AR agonist treatment (AR mRNA [8]; ASO 5.0 μM): 17 % baseline value
Percent Inhibition of AR mRNA relative to the PBS control, Heart (AR mRNA [9]; weeks 1 to 6, Heart): 32%
Percent Inhibition of AR mRNA relative to the PBS control, Kidney (AR mRNA [9]; weeks 1 to 6, Kidney): 19%
Percent Inhibition of AR mRNA relative to the PBS control, Liver (AR mRNA [9]; weeks 1 to 6, Liver): 65%
Percent Inhibition of AR mRNA relative to the PBS control, Prostate (AR mRNA [9]; weeks 1 to 6, Prostate): 27%
Percent Inhibition of AR mRNA relative to the PBS control, Skeletal Muscle (AR mRNA [9]; weeks 1 to 6, Skeletal Muscle): 30%
percent inhibition of AR (AR mRNA [10]; 31.25 nM): 16%
percent inhibition of AR (AR mRNA [10]; 62.5 nM): 48%
percent inhibition of AR (AR mRNA [10]; 125.0 nM): 65%
percent inhibition of AR (AR mRNA [10]; 500.0 nM): 89%
percent inhibition of AR (AR mRNA [10]; 1000.0 nM): 97%
IC50 (AR mRNA [10]): 90 nM
PSA mRNA levels (% baseline value) after treatment with DHT ([11]; ASO 0.04 μM): 74 % baseline value
PSA mRNA levels (% baseline value) after treatment with DHT ([11]; ASO 0.20 μM): 61 % baseline value
PSA mRNA levels (% baseline value) after treatment with DHT ([11]; ASO 1.0 μM): 35 % baseline value
PSA mRNA levels (% baseline value) after treatment with DHT ([11]; ASO 5.0 μM): 35 % baseline value
PSA mRNA levels (% baseline value) after treatment with R1881 ([11]; ASO 0.04 μM): 92 % baseline value
PSA mRNA levels (% baseline value) after treatment with R1881 ([11]; ASO 0.20 μM): 77 % baseline value
PSA mRNA levels (% baseline value) after treatment with R1881 ([11]; ASO 1.0 μM): 44 % baseline value
PSA mRNA levels (% baseline value) after treatment with R1881 ([11]; ASO 5.0 μM): 35 % baseline value
PSA mRNA levels (% baseline value) of cells without AR agonist treatment ([11]; ASO 0.04 μM): 113 % baseline value
PSA mRNA levels (% baseline value) of cells without AR agonist treatment ([11]; ASO 0.20 μM): 83 % baseline value
PSA mRNA levels (% baseline value) of cells without AR agonist treatment ([11]; ASO 1.0 μM): 75 % baseline value
PSA mRNA levels (% baseline value) of cells without AR agonist treatment ([11]; ASO 5.0 μM): 71 % baseline value
